This note sets out measurements from US20060052344A1, “Heterocyclic silicon compounds and their use in the treatment of diseases or conditions associated with gnrh (gonadotropin-releasing hormone)” (priority 2002, published 2006).

Values joined by “and” are separate entries in the source; they are usually repeats but may differ in a detail not shown here. Equal entries are not always repeated.

By melting point is commonly meant the temperature, or range, at which the solid turns liquid. In the case of `COc1cc(OC)c(NC(=O)c2ccc(Cc3cc4c(cc3C)[Si](C)(C)CC[Si]4(C)C)o2)c(OC)c1`, the melting point is 139 °C and 139 to 140 °C.
